Results published in PubChem BioAssay AID1996.
In brackets after ≈: the same amount, converted by molar mass.

Conditions: buffer; pH 7.4; 200.0 µM

| SMILES | solubility kinetic [µg/mL] |
| --- | --- |
| CCN1CCN(CCC(=O)Nc2ccccc2)CC1 | > 39.2 |
| CCOc1ccc2nc(SCC(=O)NCc3ccc(S(N)(=O)=O)cc3)[nH]c2c1 | 35.2 (≈ 83.7 µM) |
| CC(=Nc1ccccc1N)c1c(O)n(C)c(=O)[nH]c1=O | > 41.1 |
| Cc1cc(C)c(NC(=S)N(C)C)cc1C | > 33.4 |
| Nc1cccc(-c2cc3ccccc3oc2=O)c1 | > 35.6 |
| CCOC(=O)c1ccc(CN2Cc3ccccc3C2=O)cc1 | > 44.3 |
| CCC(C(=O)Nc1ccccn1)c1ccccc1 (stereo unspecified) | > 36 |
| O=C1/C(=C/c2ccccn2)COc2ccccc21 | 11.3 (≈ 47.6 µM) |
| Cc1c(C=C2C(=O)NC(=O)NC2=O)c(=O)n(-c2ccccc2)n1C | > 48.9 |
| CC(C)CNC(=O)COC(=O)Cc1ccc(Cl)cc1 | 36.1 (≈ 127 µM) |
| Cc1cc(OCC(O)CN2CCOCC2)cc(C)c1Cl.Cl (stereo unspecified) | 45.2 |
| c1ccc(NCc2ccncc2)cc1 | > 27.6 |
| CC(Nc1ccccc1)c1ccncc1 (stereo unspecified) | > 29.7 |
| CN(CCOc1ccccc1)CC(=O)Nc1cccc(C#N)c1 | 43 (≈ 139 µM) |
| Cc1cc(C)nc(NC(=O)c2cccs2)c1 | 22.6 (≈ 97.3 µM) |
| Cc1ccc(CN2CC(C(=O)Nc3cccc(C)n3)CC2=O)cc1 (stereo unspecified) | > 48.5 |
| CSCC[C@H](NC(=O)NC1CCCC1)C(=O)O | > 39.1 |
| Cc1cc2c(=O)n(C)c(SCC(=O)Nc3ccccc3)nc2s1 | 0.4 (≈ 1.16 µM) |
| Cc1ccc(NC(=S)c2ccc3ccccc3n2)c(C)c1 | < 0.3 |
| Cc1ccc(S(=O)(=O)NCc2cccnc2)c(C)c1 | > 41.5 |
| O=C(Nc1ccc2oc(=O)ccc2c1)c1ccc(-c2cccc([N+](=O)[O-])c2)o1 | 3.5 (≈ 9.3 µM) |
| COc1ccc(NC(=O)C2CC3CCC2C3)c(OC)c1 (stereo unspecified) | 31.5 (≈ 114 µM) |

| SMILES | solubility kinetic [µg/mL] |
| --- | --- |
| CCN(C(=O)Cc1c(C(=O)O)n(C)c2ccccc12)c1cccc(C)c1 | > 52.6 |
| CN(C)CCCNC(=S)Nc1ccc(Oc2ccccc2)cc1 | 43.1 (≈ 131 µM) |
| CC(=O)N1CCN(Cc2nc3cc([N+](=O)[O-])ccc3n2C)CC1 | 45.1 (≈ 142 µM) |
| NS(=O)(=O)c1cccc(NC(=O)CC2(CC(=O)O)CCCC2)c1 | 41.7 (≈ 123 µM) |
| CC(C)C(=O)Nc1cc(C(F)(F)F)ccc1-n1ccnc1 | 38.8 (≈ 131 µM) |
| O=C(OCC(=O)N1CCN(c2ccccc2)CC1)c1ccc([N+](=O)[O-])s1 | 7.1 (≈ 18.9 µM) |
| O=C(OCCCOC(=O)c1cc[n+]([O-])cc1)c1cc[n+]([O-])cc1 | > 47.7 |
| CCC(=O)Oc1ccc(C2NC(=O)c3ccccc3O2)cc1OC (stereo unspecified) | 28.5 (≈ 87.1 µM) |
| CC12CCC(C(=O)Nc3ccncc3)(CC1O)C2(C)C (stereo unspecified) | > 41.2 |
| Cc1ccc(C(=O)N/C(=C\c2cccnc2)C(=O)N2CCCC2)cc1 | > 50.3 |
| CC1CCCN(C(=O)/C(=C/c2ccco2)NC(=O)c2ccccc2)C1 (stereo unspecified) | > 50.8 |
| NS(=O)(=O)c1ccc(NC(=O)c2cccc3ccccc23)cc1 | 3.1 (≈ 9.5 µM) |
| Cc1cccc(-n2c(O)c(C=Nc3cccc(O)c3)c3ccccc3c2=O)n1 | 0.8 (≈ 2.15 µM) |
| Cc1cccc(NC(=O)C2Cc3ccccc3O/C2=N\O)c1 (stereo unspecified) | 1.2 (≈ 4.05 µM) |
| COc1ccccc1CNC(=O)CN1C(=O)NC2(CCCCCCC2)C1=O | > 56 |
| COc1ccc(NC(=O)c2ccccc2Oc2ccccc2)cc1 | < 0.7 |
| Cc1nc(N2CCOCC2)nc(Oc2ccccc2F)c1[N+](=O)[O-] | 1.5 (≈ 4.49 µM) |
| O=C1NC2(CCCCC2)C(=O)N1c1cccc(Cl)c1 | 11.1 (≈ 39.8 µM) |
| Cc1[nH]c2ccccc2c1C(=O)C(=O)NC1CC1 | > 36.3 |
| CCOC(=O)N1CCN(C(=O)c2ccc3[nH]c(C)c(C)c3c2)CC1 | > 49.4 |
| CN1C(=O)c2ccc(C(=O)Nc3ccccc3O)cc2C1=O | 13.1 (≈ 44.2 µM) |
| CC(C)(C)c1ccccc1OCC(=O)NCCCn1ccnc1 | > 47.3 |

| SMILES | solubility kinetic [µg/mL] |
| --- | --- |
| O=C(NCCCCc1ccccc1)c1cc([N+](=O)[O-])cc([N+](=O)[O-])c1 | 9.9 (≈ 28.8 µM) |
| Cc1nc(C)c(C)nc1C | < 0.1 |
| COc1ccc(OCC(O)CNC(=O)c2ccccc2)cc1 (stereo unspecified) | 40.1 (≈ 133 µM) |
| COc1ccc(CCNC(=O)CCC(=O)NC2CCCC(C)C2C)cc1OC (stereo unspecified) | 39.3 (≈ 101 µM) |
| CC(C)c1ccc(N=Cc2c(O)n(C3CC3)c(=S)[nH]c2=O)cc1 | 0.5 (≈ 1.52 µM) |
| COc1ccc(C(C)=O)cc1COC(=O)c1cccnc1Cl | 5.7 (≈ 17.8 µM) |
| Cc1cccc(N2CCN(C(=O)c3ccc4ccccc4c3)CC2C)c1 (stereo unspecified) | 7.4 (≈ 21.5 µM) |
| CC(=O)Nc1cccc(Oc2nc(-c3ccccn3)nc3ccccc23)c1 | 0.8 (≈ 2.24 µM) |
| C=Cc1ccc(N=Cc2c(O)ccc3ccccc23)cc1 | 0.9 (≈ 3.29 µM) |
| Cc1cccc(S(=O)(=O)N2CCn3cccc3C2C)c1 (stereo unspecified) | > 43.6 |
| COc1cc(C(=O)NCCOc2ccccc2C)cc(OC)c1OC | 48.8 (≈ 141 µM) |
| Cc1ccc(OCCCCN2CCc3ccccc3C2)cc1.Cl | 22.8 |
| Cc1nc(/C(N)=N/OC(=O)c2c(-c3ccccc3Cl)noc2C)cs1 | 48.2 (≈ 128 µM) |
| CCOc1cc2c(cc1OCC)C(c1ccc(F)cc1)NCC2 (stereo unspecified) | > 47.3 |
| Nc1ccc(SC(F)(F)F)cc1 | 6 (≈ 31.1 µM) |
| Cc1onc(-c2ccccc2)c1CNC(=O)Nc1ccccc1 | > 46.1 |
| COc1ccccc1CNC(=O)C12CC3CC(CC(C3)C1)C2 | 2.3 (≈ 7.68 µM) |
| CN(CC(=O)N1CCCC1)S(=O)(=O)c1ccc2ccccc2c1 | > 49.9 |
| Cc1cc(C)c2c(N)c(C(=O)c3ccccc3)sc2n1 | < 0.3 |
| Clc1ccc(NCc2cccnc2)c(Cl)c1 | 29.1 (≈ 115 µM) |
| Cc1ccc(OCC(=O)N2CCC(C)CC2)c([N+](=O)[O-])n1 | 43 (≈ 147 µM) |
| CC(C)(C)n1cnc2cc(NC(=O)c3cccs3)ccc21 | > 44.9 |

| SMILES | solubility kinetic [µg/mL] |
| --- | --- |
| Cc1c(C(=O)NN2CCOCC2)cccc1[N+](=O)[O-] | > 39.8 |
| CC(=O)Nc1cccc(C(=O)NC(C)c2ccc(-n3ccnc3)cc2)c1 (stereo unspecified) | 45.5 (≈ 131 µM) |
| COc1cc(C2NC(=O)NC(C)=C2C(C)=O)ccc1O (stereo unspecified) | > 41.4 |
| Cc1ccc(C(=O)OCC(=O)N2CCCCCC2)cc1S(=O)(=O)N1CCOCC1 | > 63.7 |
| Fc1ccc(-c2nc(-c3cccs3)no2)cc1 | < 0.3 |
| CC1CCc2sc3ncnc(N4CCN(C)CC4)c3c2C1 (stereo unspecified) | > 45.4 |
| COc1ccc(N2C(=O)c3cccc4cccc(c34)C2=O)cc1 | < 0.6 |
| O=C1NC(=Nc2ccccc2)S/C1=C/c1cccnc1 | 1.2 (≈ 4.27 µM) |
| N#Cc1ccc(Oc2c(Cl)cncc2Cl)cc1 | 23.2 (≈ 87.5 µM) |
| OCCC1CN(Cc2ccsc2)CCN1C1CCCC1 (stereo unspecified) | > 44.2 |
| OCCOCCN1CCN(C2=Nc3ccccc3Sc3ccccc32)CC1 | 49.4 (≈ 129 µM) |
| CCn1c(NC(=O)C(C)C)c(-c2cccs2)c(=O)c2ccccc21 | > 51.1 |
| O=C1NC2=C(C(=O)OC2)C(c2ccc(OC(F)(F)F)cc2)N1 (stereo unspecified) | > 47.1 |
| CCN=C1SC(C(=O)Nc2cccc(Cl)c2)CC(=O)N1CC (stereo unspecified) | 2.6 (≈ 7.65 µM) |
| CCOC(=O)Cn1c(C)c(Br)c(COC)c(C#N)c1=O | > 51.5 |
| Cc1ccc2c(c1)C1CN(C)CCC1N2C(=S)Nc1ccc(OC(F)F)cc1 (stereo unspecified) | 44.8 (≈ 111 µM) |
| CCn1c(OC)nc2c1c(=O)n(C)c(=O)n2C | > 35.7 |
| C[C@H](N)c1nnc(SCC(N)=O)o1.Cl | > 35.8 |
| CC(C)NC(=O)CSc1nccc(-c2cccs2)n1 | 38.7 (≈ 132 µM) |
| Cc1noc(C)c1COc1ccccc1C(=O)NC1CCC(C)CC1 (stereo unspecified) | > 51.4 |
